Activity calls are given as the source filed them. The rule behind the calls is not given here.

Series [1] in a line: Drug uptake in mouse Lymph node at 655/24nm band pass by fluorescence imaging based analysis. The format is ADME, tissue-based. Conditions: in vivo.
Series [2] can be described thus: Drug uptake in mouse Lymph node at 769/48nm long pass by fluorescence imaging based analysis. It is filed as ADME, tissue-based. Conditions: in vivo.
Series [3] can be described thus: Drug uptake in mouse Lymph node at 1000 long pass by fluorescence imaging based analysis. The format is ADME, tissue-based. Conditions: in vivo.
The subject of series [4] is NIH3T3. Nature of the series: Cytotoxicity in mouse 3T3 cells at upto 100 uM incubated for 24 hrs by CCK-8 method. It is filed as toxicity, cell-based. Conditions: nih3t3, 24 h.
Series [5] in a line: Drug excretion in Balb/c mouse liver administered as iv dose measured after 12 hrs by NIR-II fluorescence imaging analysis. The conditions noted are these: in vivo. It is filed as ADME, organism-based.
Series [6] deals with 4T1. Nature of the series: Cytotoxicity in mouse 4T1 cells at upto 100 uM incubated for 24 hrs by CCK-8 method. The format is functional, cell-based.
A short description of series [7]: Toxicity in BALB/c mouse assessed as effect on heart at 6.84 ug, IG pretreated with compound for 2 hrs followed by laser irradiation at 808nm 1.0 W/cm2 for 5 mins and measured after 14 days by H and E staining based analysis. It is filed as tissue-based. The conditions noted are these: in vivo, po, 336 h, dose 6.84 µg, time 14 day.
Series [8] can be described thus: Toxicity in BALB/c mouse assessed as effect on lung measured after 24 hrs by real-time NIR-II fluorescence imaging analysis. It is filed as tissue-based. The conditions noted are these: in vivo.
A short description of series [9]: Toxicity in BALB/c mouse assessed as effect on tumor at 6.84 ug, IG pretreated with compound for 2 hrs followed by laser irradiation at 808nm 1.0 W/cm2 for 5 mins and measured after 14 days by H and E staining based analysis. The conditions noted are these: in vivo, po, 336 h, dose 6.84 µg, time 14 day.
A short description of series [10]: Toxicity in BALB/c mouse assessed as effect on heart measured after 24 hrs by real-time NIR-II fluorescence imaging analysis. The format is tissue-based. The conditions noted are these: in vivo.
The nature of series [11]: Toxicity in BALB/c mouse assessed as effect on kidney at 6.84 ug, IG measured after 14 days by H and E staining based analysis. Conditions: in vivo, po, 336 h, dose 6.84 µg, time 14 day. It is filed as tissue-based.
Series [12] can be described thus: Toxicity in BALB/c mouse assessed as AST level in serum measured after 7 to 14 days by biochemical analysis. Conditions: time 7-14 day.
Series [13] has as its system 4T1. Nature of the series: Antitumor activity against mouse 4T1 cells xenografted in BALB/c mouse model assessed as increase in tumor temperature at 6.84 ug, IG pretreated with compound for 2 hrs followed by laser irradiation at 808nm 1.0 W/cm2 for 5 mins (reference value: 34 degreeC). The format is functional. The conditions noted are these: dose 6.84 µg, time 125 min, 2.083 h.

In series [14] the test system is 4T1. Nature of the series: Antitumor activity against mouse 4T1 cells xenografted in BALB/c mouse model assessed as induction of apoptosis at 6.84 ug, IG pretreated with compound for 2 hrs followed by laser irradiation at 808nm 1.0 W/cm2 for 5 mins and measured every two days for 14 days by TUNEL assay. The conditions noted are these: dose 6.84 µg, time 14.0 day. It is filed as functional.

The nature of series [15]: Toxicity in BALB/c mouse assessed as effect on liver measured after 24 hrs by real-time NIR-II fluorescence imaging analysis. The format is tissue-based. The conditions noted are these: in vivo.
Series [16] can be described thus: Toxicity in BALB/c mouse assessed as ALT level in serum measured after 7 to 14 days by biochemical analysis. The conditions noted are these: time 7-14 day.
In series [17] the test system is 4T1. Nature of the series: Cytotoxicity in mouse 4T1 cells assessed as increase in red fluorescence at 100 uM incubated for 12 hrs by Calcein-AM and PI staining based fluorescence microscopy analysis. The format is functional, cell-based.
Series [18] can be described thus: Toxicity in BALB/c mouse assessed as effect on kidney at 6.84 ug, IG pretreated with compound for 2 hrs followed by laser irradiation at 808nm 1.0 W/cm2 for 5 mins and measured after 14 days by H and E staining based analysis. It is filed as tissue-based. Conditions: in vivo, po, 336 h, dose 6.84 µg, time 14 day.
Series [19] in a line: Toxicity in BALB/c mouse assessed as effect on body weight at 6.84 ug, IG pretreated with compound for 2 hrs followed by laser irradiation at 808nm 1.0 W/cm2 for 5 mins and measured every two days for 14 days. The conditions noted are these: in vivo, po, 336 h, dose 6.84 µg, time 14 day.
The nature of series [20]: Drug metabolism in Balb/c mouse liver administered as iv dose by NIR-II fluorescence imaging analysis. It is filed as ADME, organism-based. The conditions noted are these: in vivo.
Series [21] can be described thus: Toxicity in BALB/c mouse assessed as effect on spleen at 6.84 ug, IG measured after 14 days by H and E staining based analysis. Conditions: in vivo, po, 336 h, dose 6.84 µg, time 14 day. The format is tissue-based.
The nature of series [22]: Toxicity in BALB/c mouse assessed as effect on liver at 6.84 ug, IG measured after 14 days by H and E staining based analysis. It is filed as tissue-based. The conditions noted are these: in vivo, po, 336 h, dose 6.84 µg, time 14 day.
A short description of series [23]: Toxicity in BALB/c mouse assessed as effect on liver at 6.84 ug, IG pretreated with compound for 2 hrs followed by laser irradiation at 808nm 1.0 W/cm2 for 5 mins and measured after 14 days by H and E staining based analysis. It is filed as tissue-based. The conditions noted are these: in vivo, po, 336 h, dose 6.84 µg, time 14 day.
Series [24] concerns 4T1. Kind of series: Cytotoxicity in mouse 4T1 cells assessed as increase in red fluorescence at 100 uM incubated for 12 hrs followed by 808nm laser irradiation for 5 mins and measured after 12 hrs by Calcein-AM and PI staining based fluorescence microscopy analysis. It is filed as functional, cell-based. Conditions: time 1445.0 min.
The test system of series [25] is 4T1. Nature of the series: Cytotoxicity in mouse 4T1 cells assessed as decrease in cell survival at 75 uM incubated for 24 hrs under laser irradiation by CCK-8 method. The format is functional, cell-based.
Series [26] is described as follows: Toxicity in BALB/c mouse assessed as effect on body weight at 6.84 ug, IG measured every two days for 14 days. Conditions: in vivo, po, 336 h, dose 6.84 µg, time 14 day.
Series [27] in a line: Toxicity in BALB/c mouse assessed as creatinine level in serum measured after 7 to 14 days by biochemical analysis. Conditions: time 7-14 day.
The nature of series [28]: Toxicity in BALB/c mouse assessed as UREA level in serum measured after 7 to 14 days by biochemical analysis. The conditions noted are these: time 7-14 day.
A short description of series [29]: Toxicity in BALB/c mouse assessed as effect on spleen measured after 24 hrs by real-time NIR-II fluorescence imaging analysis. The format is tissue-based. The conditions noted are these: in vivo.
Series [30] can be described thus: Toxicity in BALB/c mouse assessed as effect on kidney measured after 24 hrs by real-time NIR-II fluorescence imaging analysis. It is filed as tissue-based. Conditions: in vivo.
Series [31] can be described thus: Toxicity in BALB/c mouse assessed as ALB level in serum measured after 7 to 14 days by biochemical analysis. The conditions noted are these: time 7-14 day.
Series [32] concerns 4T1. Kind of series: Antitumor activity against mouse 4T1 cells xenografted in BALB/c mouse model assessed as suppression of tumor at 6.84 ug, IG pretreated with compound for 2 hrs followed by laser irradiation at 808nm 1.0 W/cm2 for 5 mins and measured every two days for 14 days by vernier caliper analysis. The format is functional. Conditions: dose 6.84 µg, time 14.0 day.

Series [33] has as its system 4T1. Nature of the series: Antitumor activity against mouse 4T1 cells xenografted in BALB/c mouse model assessed as induction of apoptosis at 6.84 ug, IG measured every two days for 14 days by TUNEL assay. The format is functional. Conditions: dose 6.84 µg, time 14.0 day.
A short description of series [34]: Toxicity in BALB/c mouse assessed as effect on tumor at 6.84 ug, IG measured after 14 days by H and E staining based analysis. Conditions: in vivo, po, 336 h, dose 6.84 µg, time 14 day.
The nature of series [35]: Toxicity in BALB/c mouse assessed as effect on lung at 6.84 ug, IG measured after 14 days by H and E staining based analysis. The format is tissue-based. Conditions: in vivo, po, 336 h, dose 6.84 µg, time 14 day.
Series [36] can be described thus: Toxicity in BALB/c mouse assessed as effect on lung at 6.84 ug, IG pretreated with compound for 2 hrs followed by laser irradiation at 808nm 1.0 W/cm2 for 5 mins and measured after 14 days by H and E staining based analysis. The format is tissue-based. Conditions: in vivo, po, 336 h, dose 6.84 µg, time 14 day.
In series [37] the test system is 4T1. Nature of the series: Induction of intracellular ROS generation in mouse 4T1 cells preincubated with compound followed by laser irradiation at 808nm 1.0 W/cm2 by DCFDA staining based analysis. The format is functional, cell-based.
Series [38] in a line: Toxicity in BALB/c mouse assessed as effect on heart at 6.84 ug, IG measured after 14 days by H and E staining based analysis. The format is tissue-based. The conditions noted are these: in vivo, po, 336 h, dose 6.84 µg, time 14 day.
Series [39] in a line: Drug uptake in mouse 4T1 cells assessed as increase in fluorescence measured upto 12 hrs by NIR-II fluorescence microscopic analysis. The format is ADME, cell-based. The conditions noted are these: 4t1, 12 h.
Series [40] is described as follows: Toxicity in BALB/c mouse assessed as effect on spleen at 6.84 ug, IG pretreated with compound for 2 hrs followed by laser irradiation at 808nm 1.0 W/cm2 for 5 mins and measured after 14 days by H and E staining based analysis. Conditions: in vivo, po, 336 h, dose 6.84 µg, time 14 day. It is filed as tissue-based.

Regarding `CCN1/C(=C/C2=C([O-])C(=C/C3=[N+](CC)c4ccccc4C3(C)C)/C2=O)C(C)(C)c2ccccc21`, the Drug uptake result in series [1] was “Active”.

With `CCN1/C(=C/C2=C([O-])C(=C/C3=[N+](CC)c4ccc5ccccc5c4C3(C)C)/C2=O)C(C)(C)c2c1ccc1ccccc21`, in series [2], the Drug uptake entry is recorded as “Active”.

In the case of `CCn1/c(=C/C2=C([O-])C(=C/C3=[N+](CC)c4cccc5cccc3c45)/C2=O)c2cccc3cccc1c32`, in series [3], the Drug uptake result is listed as “Active”.

Take `O=C1C(/C=c2\c3cccc4cccc(c43)n2CCCCS(=O)(=O)O)=C([O-])C/1=C/C1=[N+](CCCCS(=O)(=O)O)c2cccc3cccc1c23`: the Activity entry in series [4], in [7], in [8], in series [9], in series [10] and in series [11] was “Non-Toxic” throughout. For the same compound, the Activity result in [12], in series [15], in series [16], in series [18], in [19] and in series [21] was “Non-Toxic” throughout. In addition, the Activity result in series [22], in series [23], in series [26], in series [27], in [28] and in series [29] was “Non-Toxic” each time. Besides, the Activity result in series [30], in [31], in series [34], in [35], in series [36] and in series [38] was “Non-Toxic” throughout. In series [40], the Activity result is “Non-Toxic”. Also, the Drug excretion entry in [5] was “Active”. Further, the result in [6], in series [17] and in series [37] was inactive. The T in series [13] came to 54 °C. For the same compound, the result in [14], in [24], in series [25], in series [32] and in series [33] was Active. The Drug metabolism entry in series [20] was “Metabolite_Detected”. In addition, the Drug uptake result in series [39] is “Active”.

The values above are taken from ChEMBL document CHEMBL5500391, “Systematic Structural Modification of Squaraine Dye for Near-Infrared Window One and Two Multiplexed In Vivo Imaging and Photothermal Therapy” (J Med Chem, 2024).
